Where a name gives a salt, the structure may show the parent alone. Read-outs that look alike come from different tables or passages of the source.
Assays:
Assay in all cases: biochemical
MMP-2 = target: T1, MMP-2 (Homo sapiens, UniProt P08253)
T1 construct: made in house; provided by Dr. Gregory Goldberg, Washington University
T1 sequence (P08253 110-660): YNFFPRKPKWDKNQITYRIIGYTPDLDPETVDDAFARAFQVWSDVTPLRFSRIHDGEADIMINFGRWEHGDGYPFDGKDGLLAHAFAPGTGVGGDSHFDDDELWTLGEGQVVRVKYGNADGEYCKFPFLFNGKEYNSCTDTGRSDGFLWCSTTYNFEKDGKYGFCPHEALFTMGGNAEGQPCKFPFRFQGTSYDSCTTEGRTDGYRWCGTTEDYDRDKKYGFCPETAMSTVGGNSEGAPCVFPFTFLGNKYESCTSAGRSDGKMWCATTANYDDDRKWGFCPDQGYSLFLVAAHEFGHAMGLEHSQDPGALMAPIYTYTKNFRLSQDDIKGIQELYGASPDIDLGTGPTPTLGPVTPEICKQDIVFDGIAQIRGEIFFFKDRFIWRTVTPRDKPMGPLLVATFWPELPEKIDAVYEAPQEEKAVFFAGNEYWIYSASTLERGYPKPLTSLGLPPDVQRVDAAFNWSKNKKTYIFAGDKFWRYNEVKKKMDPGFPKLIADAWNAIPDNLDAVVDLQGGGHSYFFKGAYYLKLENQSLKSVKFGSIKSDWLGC
In short: (§1)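 APMA- or trypsin-activated enzymes were preincubated with inhibitor for 5 min at room temperature, then the fluorogenic substrate MCA-Pro-Leu-Gly-Leu-Dpa-Ala-Arg-NH2 was added to a final 4 μM.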

MMP-1 = target: T2, MMP-1 (Homo sapiens, UniProt P03956)
T2 construct: made in house; host or cells: transfected HT-1080 cells (provided by Dr. Harold Welgus, Washington University)
T2 sequence (P03956 100-469): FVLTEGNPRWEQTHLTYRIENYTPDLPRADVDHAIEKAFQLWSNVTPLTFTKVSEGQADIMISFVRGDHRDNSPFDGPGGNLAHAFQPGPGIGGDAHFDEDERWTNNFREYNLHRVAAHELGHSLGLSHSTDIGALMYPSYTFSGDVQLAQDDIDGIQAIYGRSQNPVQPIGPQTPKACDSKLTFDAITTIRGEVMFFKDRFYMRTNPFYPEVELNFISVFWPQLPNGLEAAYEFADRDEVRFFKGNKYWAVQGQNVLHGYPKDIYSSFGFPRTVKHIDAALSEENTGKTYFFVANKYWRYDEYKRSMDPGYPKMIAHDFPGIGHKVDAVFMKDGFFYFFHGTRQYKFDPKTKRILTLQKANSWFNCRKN
In short: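 Substrate MCA-PLGL-Dpa-AR-NH2 at 4 μM final; pH 7.5 Tris/NaCl/CaCl2 buffer with 0.05% polyethyleneglycol lauryl ether, 1% DMSO, room temperature. MMP-1 was expressed in transfected HT-1080 cells and APMA-activated.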

MMP-13 = target: T3, MMP-13 (Homo sapiens, UniProt P45452)
T3 construct: made in house; host or cells: baculovirus / insect cells
In short: as §1

[1] = recombinant human MMP-2, MCA peptide substrate 4 μM, pH 7.5, room temperature, read-out: MMP-2 IC50
[2] = recombinant human MMP-1, MCA peptide substrate 4 μM, pH 7.5, room temperature, read-out: MMP-1 IC50
[3] = recombinant human MMP-13, MCA peptide substrate 4 μM, pH 7.5, room temperature, read-out: MMP-13 IC50

Row | Compound | IC50 (MMP-2; [1]) | IC50 (MMP-1; [2]) | IC50 (MMP-13; [3]) | other results
1 | CC1CC(C)CN(C(=O)C2CCN(c3ccc(S(=O)(=O)C4(C(=O)NO)CCN(C(=O)CNCc5ccccn5)CC4)cc3)CC2)C1 (stereo not drawn) [Example 284] | > 10000 nM | > 10000 nM | 130 nM | –
2 | CC1CC(C)CN(C(=O)C2CCN(c3ccc(S(=O)(=O)C4(C(=O)NO)CCN(C(=O)CN5CCN(CCOCCO)CC5)CC4)cc3)CC2)C1 (stereo not drawn) [Example 299] | 9000 nM | > 10000 nM | 30.6 nM | –
3 | O=C(C1CCN(c2ccc(S(=O)(=O)C3(C(=O)NO)CCOCC3)cc2)CC1)N1CCN(c2cnccn2)CC1 [Example 40] | – | – | – | IC50 (MMP-2; MMP-2 IC50 (nM)): 900 nM; IC50 (MMP-1; read-out: MMP-1 IC50): > 10000 nM; IC50 (MMP-13; MMP-13 IC50 (nM), recombinant human MMP-13, MCA peptide substrate 4 μM, pH 7.5, room temperature): 26.8 nM
4 | CC1CC(C)CN(C(=O)C2CCN(c3ccc(S(=O)(=O)C4(C(=O)NO)CCN(C(=O)CNCc5cccs5)CC4)cc3)CC2)C1 (stereo not drawn) [Example 282] | 9000 nM | > 10000 nM | 14.8 nM | –
5 | O=C(C1CCN(c2ccc(S(=O)(=O)C3(C(=O)NO)CCOCC3)cc2)CC1)N1CCC(CO)CC1 [Example 44] | – | – | – | IC50 (MMP-2; read-out: MMP-2 IC50): 1050 nM; IC50 (MMP-1; read-out: MMP-1 IC50): > 10000 nM; IC50 (MMP-13; read-out: MMP-13 IC50): 19 nM
6 | CCCc1ccc(C(=O)C2CCN(c3ccc(S(=O)(=O)C4(C(=O)NO)CCOCC4)cc3)CC2)cc1 [Example 860] | 1500 nM | > 10000 nM | 2.7 nM | –
7 | COc1ccc(Oc2ccc(S(=O)(=O)C3(C(=O)NO)CCSCC3)cc2)cc1 [Example 146] | – | – | – | IC50 (MMP-2; read-out: MMP-2 IC50): 0.3 nM; IC50 (MMP-1; read-out: MMP-1 IC50): 3000 nM; IC50 (MMP-13; read-out: MMP-13 IC50): 0.2 nM
8 | CCCCOc1cccc(S(=O)(=O)N2CC(Oc3ccc(S(=O)(=O)C4(C(=O)NO)CCOCC4)cc3)C2)c1 [Example 830] | 2100 nM | > 10000 nM | 17.9 nM | –
9 | O=C(NO)C1(S(=O)(=O)c2ccc(N3CCC(n4c(=O)[nH]c5ccccc54)CC3)cc2)CCOCC1 [Example 211] | 1200 nM | – | 11.4 nM | IC50 (MMP-1; read-out: MMP-1 IC50): > 10000 nM
10 | CCOc1ccc(C(=O)C2CCN(c3ccc(S(=O)(=O)C4(C(=O)NO)CCOCC4)cc3)CC2)cc1 [Example 791] | 700 nM | > 10000 nM | 2 nM | –
11 | O=C(c1ccc(Cl)c(Cl)c1)C1CCN(c2ccc(S(=O)(=O)C3(C(=O)NO)CCOCC3)cc2)CC1 [Example 846] | 186 nM | > 10000 nM | 4.5 nM | –
12 | COc1ccc(NC(=O)C2CCN(c3ccc(S(=O)(=O)C4(C(=O)NO)CCOCC4)cc3)CC2)cc1 [Example 76] | 250 nM | > 10000 nM | 9 nM | –
13 | COc1cc2c(cc1OC)CN(c1ccc(S(=O)(=O)C3(C(=O)NO)CCN(C4CC4)CC3)cc1)CC2 [Example 464] | 400 nM | > 10000 nM | 120 nM | –
14 | Cc1ccc(C(=O)C2CCN(c3ccc(S(=O)(=O)C4(C(=O)NO)CCOCC4)cc3)CC2)cc1 [Example 652] | 82 nM | > 10000 nM | 0.4 nM | –
15 | O=C(Nc1ccc(F)cc1)C1CCN(c2ccc(S(=O)(=O)C3(C(=O)NO)CCOCC3)cc2)CC1 [Example 75] | 500 nM | > 10000 nM | 11.5 nM | –
16 | O=C(NO)C1(S(=O)(=O)c2ccc(N3CCC(OCc4ccc(Cl)cc4)CC3)cc2)CCN(C2CC2)CC1 [Example 419] | 400 nM | > 10000 nM | 4.2 nM | –
17 | O=C(NO)C1(S(=O)(=O)c2ccc(N3CCC(Sc4ccc(OC(F)(F)F)cc4)CC3)cc2)CCN(C2CC2)CC1 [Example 415] | 246 nM | > 10000 nM | 50.4 nM | –
18 | COc1ccc(C(=O)N2CCN(c3ccc(S(=O)(=O)C4(C(=O)NO)CCOCC4)cc3)CC2)cc1 [Example 594] | – | – | 570 nM | IC50 (MMP-2; MMP-2 IC50 (nM)): 650 nM; IC50 (MMP-1): > 10000 nM
19 | COc1ccc(C(=O)C2CCN(c3ccc(S(=O)(=O)C4(C(=O)NO)CCN(C(=O)OCc5ccccc5)CC4)cc3)CC2)cc1 [Example 435] | 1500 nM | > 10000 nM | 5.9 nM | –
20 | COc1ccc(C(=O)C2CCN(c3ccc(S(=O)(=O)C4(C(=O)NO)CCOCC4)cc3)CC2)cc1 [Example 647] | 160 nM | > 10000 nM | 6 nM | –
21 | COc1cccc(NC(=O)C2CCN(c3ccc(S(=O)(=O)C4(C(=O)NO)CCOCC4)cc3)CC2)c1 [Example 72] | 800 nM | > 10000 nM | 13 nM | –

Second part, led by results:

Row | IC50 (MMP-2; [1]) | IC50 (MMP-1; [2]) | IC50 (MMP-13; [3]) | Compound | other results
22 | 110 nM | > 10000 nM | 14.8 nM | COc1ccc(CCCOC2CCN(c3ccc(S(=O)(=O)C4(C(=O)NO)CCOCC4)cc3)CC2)cc1OC [Example 811] | –
23 | > 10000 nM | > 10000 nM | > 10000 nM | O=C(NO)C1(S(=O)(=O)c2ccc(N3CC4CC3CN4c3cccc(F)c3)cc2)CCOCC1 (stereo not drawn) [Example 491] | –
24 | > 10000 nM | > 10000 nM | 8800 nM | COC[C@@H]1CCN(c2ccc(S(=O)(=O)C3(C(=O)NO)CCOCC3)cc2)C1 [Example 529] | –
25 | > 10000 nM | > 10000 nM | > 10000 nM | O=C(NO)C1(S(=O)(=O)c2ccc(N3CC[C@@H](COCc4ccc(F)cc4)C3)cc2)CCOCC1 [Example 526] | –
26 | 0.3 nM | > 10000 nM | 0.5 nM | O=C(CNCCO)N1CCC(C(=O)NO)(S(=O)(=O)c2ccc(Oc3ccc(C(F)(F)F)cc3)cc2)CC1 [Example 321] | –
27 | 730 nM | > 10000 nM | 70 nM | CCCCC(=O)N1CCN(c2ccc(S(=O)(=O)C3(C(=O)NO)CCOCC3)cc2)CC1 [Example 591] | –
28 | 240 nM | > 10000 nM | 32.7 nM | CCOC1CCN(c2ccc(S(=O)(=O)C3(C(=O)NO)CCOCC3)cc2)CC1 [Example 166] | –
29 | 290 nM | > 10000 nM | 11.3 nM | COc1ccc(S(=O)(=O)N2CCN(c3ccc(S(=O)(=O)C4(C(=O)NO)CCOCC4)cc3)CC2)cc1OC [Example 683] | –
30 | 34.7 nM | > 10000 nM | 5 nM | C=CCCC(=O)C1CCN(c2ccc(S(=O)(=O)C3(C(=O)NO)CCOCC3)cc2)CC1 [Example 758] | –
31 | 170 nM | > 10000 nM | 2.3 nM | CCc1cccc([C@@H](C)C2CCN(c3ccc(S(=O)(=O)C4(C(=O)NO)CCOCC4)cc3)CC2)c1 [Example 831] | –
32 | 77 nM | > 10000 nM | 3 nM | O=C(NO)C1(S(=O)(=O)c2ccc(N3CCC(OCc4ccc(COCCF)cc4)CC3)cc2)CCOCC1 [Example 606] | –
33 | 0.2 nM | > 10000 nM | 1.9 nM | CN(C)CCN(C)CCCCC(=O)N1CCC(C(=O)NO)(S(=O)(=O)c2ccc(Oc3ccc(C(F)(F)F)cc3)cc2)CC1 [Example 338] | –
34 | 0.65 nM | > 10000 nM | 2.9 nM | CCN(CCCCC(=O)N1CCC(C(=O)NO)(S(=O)(=O)c2ccc(Oc3ccc(C(F)(F)F)cc3)cc2)CC1)Cc1ccncc1 [Example 344] | –
35 | 11 nM | > 10000 nM | 3.1 nM | O=C(NO)C1(S(=O)(=O)c2ccc(N3CCC(Oc4ccc(Cl)cc4)CC3)cc2)CCOCC1 [Example 615] | –
36 | 140 nM | > 10000 nM | 12.8 nM | O=C(NO)C1(S(=O)(=O)c2ccc(N3CCC(Oc4ccccc4[N+](=O)[O-])CC3)cc2)CCOCC1 [Example 552] | –
37 | 10.6 nM | > 10000 nM | 1.1 nM | CCCCSC1CCN(c2ccc(S(=O)(=O)C3(C(=O)NO)CCOCC3)cc2)CC1 [Example 596] | –
38 | 235 nM | > 10000 nM | 13 nM | COCCN1CCC(C(=O)NO)(S(=O)(=O)c2ccc(N3CCC(C(=O)Nc4cccc(OC(F)(F)F)c4)CC3)cc2)CC1 [Example 249, N-Hydroxy-1-(2-methoxyethyl)-4-[[4-[4-[[[3-(trifluoromethoxy)phenyl]amino]carbonyl]-1-piperidinyl]phenyl]sulfonyl]-4-piperidinecarboxamide, Monohydrochloride] | –
